Measurements published in ChEMBL document CHEMBL1201862, “PubChem BioAssay data set” (2004).
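Step 1: Grow cells in 96-well plates. Step 2: Expose to compound for 48 hours at 5 concentrations. Step 3: Interpolate endpoints linearly; if unreached, use highest concentration. GI50 is the concentration that inhibits growth by half.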 Activity calls are given as the source filed them. Rule as the data show it: active = GI50 up to about 1.1 µM and inactive = higher.

Key:
Test in all cases: inhibition of tumour cell growth, NCI panel, 48 h
[1] = test system: A549
[2] = test system: BT-549
[3] = test system: HCT-116
[4] = test system: Hs-578T
[5] = test system: KM12
[6] = test system: M14
[7] = test system: MDA-MB-435
[8] = test system: NCI-H226
[9] = test system: OVCAR-5
[10] = test system: OVCAR-8
[11] = test system: RPMI-8226
[12] = test system: SK-MEL-2
[13] = test system: SK-MEL-5
[14] = test system: SK-OV-3
[15] = test system: SNB-19
[16] = test system: SW-620
[17] = test system: TK-10
[18] = test system: UO-31
[19] = test system: SN12C
[20] = test system: SK-MEL-28

CN1CC2CN(Cc3ccccc3)CCN2c2cccnc21 (stereo not given)
GI50 [1]: > 100 µM (inactive) | GI50 [2]: 33.3 µM (inactive) | GI50 [3]: 10.6 µM (inactive) | GI50 [4]: 40.3 µM (inactive) | GI50 [5]: 23.9 µM (inactive) | GI50 [6]: 60.7 µM (inactive) | GI50 [7]: 30.5 µM (inactive) | GI50 [8]: 57.7 µM (inactive) | GI50 [9]: > 100 µM (inactive) | GI50 [10]: 48.2 µM (inactive) | GI50 [11]: 27.5 µM (inactive) | GI50 [12]: 89.7 µM (inactive) | GI50 [13]: 31.1 µM (inactive) | GI50 [14]: > 100 µM (inactive) | GI50 [15]: 64.7 µM (inactive) | GI50 [16]: 35.2 µM (inactive) | GI50 [17]: > 100 µM (inactive) | GI50 [18]: 69.3 µM (inactive)

O=C1CC(c2cccc(F)c2)Nc2cc3c(cc21)OCO3 (stereo not given)
GI50 [1]: 0.0363 µM (active) | GI50 [2]: > 10 µM (inactive) | GI50 [3]: 0.0533 µM (active) | GI50 [4]: < 0.01 µM (active) | GI50 [5]: 0.0463 µM (active) | GI50 [6]: 0.0267 µM (active) | GI50 [7]: 0.0136 µM (active) | GI50 [8]: 0.027 µM (active) | GI50 [9]: 0.054 µM (active) | GI50 [10]: 0.0568 µM (active) | GI50 [11]: < 0.01 µM (active) | GI50 [12]: 0.0356 µM (active) | GI50 [13]: 0.0224 µM (active) | GI50 [14]: 0.0955 µM (active) | GI50 [19]: 0.0509 µM (active) | GI50 [15]: 0.0365 µM (active) | GI50 [16]: 0.0393 µM (active) | GI50 [17]: 1.13 µM (inactive) | GI50 [18]: 0.0422 µM (active)

COc1ccc2nc3cc(Cl)ccc3c(NCCCCCC(=O)NC(COc3cnc4c(ccc5cccnc54)c3)COc3cnc4c(ccc5cccnc54)c3)c2c1
GI50 [1]: 29.1 µM (inactive) | GI50 [2]: 10.5 µM (inactive) | GI50 [3]: 3.94 µM (inactive) | GI50 [4]: 50.8 µM (inactive) | GI50 [5]: 5.92 µM (inactive) | GI50 [6]: 77.1 µM (inactive) | GI50 [7]: 18.5 µM (inactive) | GI50 [8]: 4.73 µM (inactive) | GI50 [9]: 24.1 µM (inactive) | GI50 [10]: 31.4 µM (inactive) | GI50 [11]: 5.65 µM (inactive) | GI50 [20]: 17.6 µM (inactive) | GI50 [12]: 14.1 µM (inactive) | GI50 [14]: 21.9 µM (inactive) | GI50 [19]: 22.9 µM (inactive) | GI50 [15]: 13.6 µM (inactive) | GI50 [16]: 10.5 µM (inactive) | GI50 [17]: 27.5 µM (inactive) | GI50 [18]: 74.5 µM (inactive)

Cc1ccc2c(O)cc(-c3ccc(C)s3)nc2n1
GI50 [1]: 0.531 µM (active) | GI50 [2]: 0.804 µM (active) | GI50 [3]: 0.295 µM (active) | GI50 [4]: 0.297 µM (active) | GI50 [5]: 0.0912 µM (active) | GI50 [6]: 0.303 µM (active) | GI50 [7]: 0.0264 µM (active) | GI50 [8]: 0.357 µM (active) | GI50 [9]: 1.91 µM (inactive) | GI50 [10]: 0.652 µM (active) | GI50 [11]: 0.248 µM (active) | GI50 [12]: 59.3 µM (inactive) | GI50 [13]: 0.139 µM (active) | GI50 [14]: 0.746 µM (active) | GI50 [19]: 0.556 µM (active) | GI50 [15]: 0.644 µM (active) | GI50 [16]: 0.106 µM (active) | GI50 [17]: 19.3 µM (inactive) | GI50 [18]: 0.439 µM (active)

Cc1cc(N(CCC#N)CCC#N)ccc1C(/N=N\c1ccc(C(=O)O)cc1)=N\NC(=O)c1cc(Cl)ccc1O
GI50 [1]: 42.2 µM (inactive) | GI50 [2]: 45.9 µM (inactive) | GI50 [3]: 36.1 µM (inactive) | GI50 [4]: 19.7 µM (inactive) | GI50 [5]: 28.8 µM (inactive) | GI50 [6]: > 100 µM (inactive) | GI50 [7]: > 100 µM (inactive) | GI50 [8]: 18.7 µM (inactive) | GI50 [9]: > 100 µM (inactive) | GI50 [10]: 25.3 µM (inactive) | GI50 [11]: > 100 µM (inactive) | GI50 [12]: 83.6 µM (inactive) | GI50 [13]: 78.7 µM (inactive) | GI50 [14]: 28.2 µM (inactive) | GI50 [19]: > 100 µM (inactive) | GI50 [15]: 23.6 µM (inactive) | GI50 [17]: 40.2 µM (inactive) | GI50 [18]: 22.1 µM (inactive)

O=C1NCCN1/N=C/c1c(Cl)n(-c2ccccc2)c2ccccc12
GI50 [1]: 23.9 µM (inactive) | GI50 [2]: 15.4 µM (inactive) | GI50 [3]: 19.5 µM (inactive) | GI50 [4]: 13.4 µM (inactive) | GI50 [5]: 15.7 µM (inactive) | GI50 [6]: 17.5 µM (inactive) | GI50 [7]: 12.4 µM (inactive) | GI50 [8]: 20.4 µM (inactive) | GI50 [9]: 44.1 µM (inactive) | GI50 [10]: 22.3 µM (inactive) | GI50 [11]: 22.4 µM (inactive) | GI50 [12]: 25 µM (inactive) | GI50 [13]: 15.5 µM (inactive) | GI50 [14]: 46.2 µM (inactive) | GI50 [19]: 18.7 µM (inactive) | GI50 [15]: 23.1 µM (inactive) | GI50 [16]: 21.1 µM (inactive) | GI50 [17]: 14.8 µM (inactive) | GI50 [18]: 19.1 µM (inactive)

CC1(C)C2CCC1(C)[C@H](n1c(=O)n([C@@H]3CC4CCC3(C)C4(C)C)c(=O)n([C@@H]3CC4CCC3(C)C4(C)C)c1=O)C2
GI50 [1]: 31.8 µM (inactive) | GI50 [2]: 67.1 µM (inactive) | GI50 [3]: 36.7 µM (inactive) | GI50 [4]: 37.9 µM (inactive) | GI50 [5]: 58.1 µM (inactive) | GI50 [6]: > 100 µM (inactive) | GI50 [7]: 76.7 µM (inactive) | GI50 [8]: 27.7 µM (inactive) | GI50 [9]: 64 µM (inactive) | GI50 [10]: 49.9 µM (inactive) | GI50 [11]: 57.9 µM (inactive) | GI50 [20]: 92 µM (inactive) | GI50 [12]: 22.3 µM (inactive) | GI50 [13]: 34 µM (inactive) | GI50 [16]: 98.2 µM (inactive) | GI50 [17]: 42.9 µM (inactive) | GI50 [18]: 38.7 µM (inactive)

Nc1nc(Cl)cc(NCC2(CO)CC(OCc3ccccc3)C2)n1 (stereo not given)
GI50 [1]: 54.8 µM (inactive) | GI50 [2]: 35.9 µM (inactive) | GI50 [3]: 40.5 µM (inactive) | GI50 [4]: > 100 µM (inactive) | GI50 [5]: > 100 µM (inactive) | GI50 [7]: 43.6 µM (inactive) | GI50 [8]: 25.6 µM (inactive) | GI50 [9]: > 100 µM (inactive) | GI50 [10]: 71.6 µM (inactive) | GI50 [11]: 45.9 µM (inactive) | GI50 [20]: > 100 µM (inactive) | GI50 [12]: > 100 µM (inactive) | GI50 [13]: 7 µM (inactive) | GI50 [14]: > 100 µM (inactive) | GI50 [19]: > 100 µM (inactive) | GI50 [15]: 41.9 µM (inactive) | GI50 [16]: > 100 µM (inactive) | GI50 [17]: 19.4 µM (inactive) | GI50 [18]: > 100 µM (inactive)

O=[N+]([O-])c1ccc2c(c1)n1c(N3CCCC3)[n+]3ccccc3c1c1c3ccccn3c(N3CCCC3)[n+]21.[O-][Cl+3]([O-])([O-])[O-].[O-][Cl+3]([O-])([O-])[O-]
GI50 [1]: > 100 µM (inactive) | GI50 [2]: > 100 µM (inactive) | GI50 [3]: > 100 µM (inactive) | GI50 [4]: 83.2 µM (inactive) | GI50 [5]: > 100 µM (inactive) | GI50 [6]: > 100 µM (inactive) | GI50 [7]: > 100 µM (inactive) | GI50 [8]: 44.3 µM (inactive) | GI50 [9]: > 100 µM (inactive) | GI50 [10]: > 100 µM (inactive) | GI50 [11]: > 100 µM (inactive) | GI50 [20]: > 100 µM (inactive) | GI50 [12]: > 100 µM (inactive) | GI50 [13]: > 100 µM (inactive) | GI50 [19]: 51.8 µM (inactive) | GI50 [15]: 45 µM (inactive) | GI50 [16]: 65.9 µM (inactive) | GI50 [17]: > 100 µM (inactive)

C[C@H]1CC[C@@]2(OC1)O[C@H]1C[C@H]3[C@@H]4CC[C@@H]5C[C@@H](OC6OC(CO)C(O)C(O)C6OC6OC(CO)C(O)C(O)C6O)CC[C@]5(C)[C@H]4CC[C@]3(C)[C@H]1[C@@H]2C (stereo not given in full)
GI50 [1]: 2 µM (inactive) | GI50 [2]: 2.35 µM (inactive) | GI50 [3]: 2.01 µM (inactive) | GI50 [4]: 2.44 µM (inactive) | GI50 [5]: 2.6 µM (inactive) | GI50 [6]: 2.06 µM (inactive) | GI50 [7]: 2.15 µM (inactive) | GI50 [8]: 2.34 µM (inactive) | GI50 [9]: 1.81 µM (inactive) | GI50 [10]: 2.45 µM (inactive) | GI50 [11]: 1.9 µM (inactive) | GI50 [12]: 2.28 µM (inactive) | GI50 [13]: 2.18 µM (inactive) | GI50 [14]: 1.69 µM (inactive) | GI50 [19]: 2.07 µM (inactive) | GI50 [15]: 2.18 µM (inactive) | GI50 [16]: 1.77 µM (inactive) | GI50 [17]: 1.94 µM (inactive) | GI50 [18]: 1.99 µM (inactive)
